pIC50: −log10 of the molar value.
Experiments:
PFKFB3 = PFKFB3 (Homo sapiens (Human), UniProt Q16875); assay: PFKFB3 kinase activity, Method B (ADP-Glo Kinase Assay); type: biochemical
Text: (§1) The PFKFB3 (placenta form) and PFKFB4 were produced and purified to homogeneity from E. coli at Biovitrum and at Sprint Bioscience. All other reagents were purchased from commercial sources. Two independent methods have been used for determination of the kinase activity of PFKFB3 (Method A and Method B). Method B has been used for determination of the kinase activity of PFKFB4.
(§2) Method B: The kinase activity of the bi-functional enzyme is readily quantified based on the production of ADP and F-2,6-P2 from ATP and F6P. The ADP is detected with a kit, ADP-Glo™ Kinase Assay^(a-e), from Promega. The assay is a luminescent ADP detection assay that measures kinase activity by quantifying the amount of ADP produced during the kinase reaction. The assay is performed in two steps; first, after the kinase reaction, an equal volume of ADP-Glo™ Reagent is added to terminate the kinase reaction and deplete the remaining ATP. Second, the Kinase Detection Reagent is added to simultaneously convert ADP to ATP and allow the newly synthesized ATP to be measured using a luciferase/luciferine reaction. The light generated is measured using a luminescence counter (1450 MicroBeta TriLux).
(§3) The assay was performed in white 384-well microtiter plates (OptiPlate, 6007299, PerkinElmer) by consecutive additions of 0.1 μL of a test compound solution (serial diluted in DMSO from compound DMSO stock solution and dispensed by acoustic dispensing from UV-star 384-well plate 7360153, VWR), 5 μL of enzyme solution and 5 μL of a substrate (fructose-6-phosphate (F6P) and adenosine-5′-triphosphate (ATP)) containing solution. […] Four reference dose response curves, one of them being the QC compound, were included in row O1-2, P1-2, and serial diluted as the test compounds. The final concentrations of all reagents in a total assay volume of 10.1 μL per well were: • 50 mM Tris-HCl at pH 8.0 • 10 mM MgCl2 • 5 mM Na2HPO4 at pH 8.0 • 81.48 nM PFKFB3 or 145 nM PFKFB4 • 8 μM ATP • 100 μM F6P (acid treated and then neutralized to remove any contaminating F-2,6-P2; see Van Schaftingen, 1984) • 0.005% Tween-20 • 1 mM dithiothreitol (DTT) • A test compound at various concentrations or controls (final DMSO concentration 0.99%)
(§4) Enzyme, compounds and controls were pre-incubated at room temperature for 15 min before the addition of substrate solution. The enzymatic reaction was allowed to proceed for 20 min (PFKFB3) or 40 min (PFKFB4) at room temperature. The reaction was terminated by the addition of 10 μL of ADP-Glo™ Reagent to all wells and the plate was incubated for 40 min at room temperature. After addition of 20 μL Kinase Detection Reagent to all wells the plate was incubated for 30 min at room temperature, followed by measurement in 1450 MicroBeta TriLux. All plates were centrifuged after each addition (room temperature, short spin, 500 RPM, Megafuge 1.0 Heraeus Instruments).
(§5) The inhibitory potency or IC50 values of test compounds on the kinase activity of PFKFB3 or PFKFB4 were calculated using a four-parameter model (model 205) in XLfit (IDBS ActivityBase XE Runner).

PFKFB4 = PFKFB4 (Homo sapiens (Human), UniProt Q16877); assay: PFKFB4 kinase activity, Method B (ADP-Glo Kinase Assay); type: biochemical
PFKFB4, sequence (Q16877 whole entry): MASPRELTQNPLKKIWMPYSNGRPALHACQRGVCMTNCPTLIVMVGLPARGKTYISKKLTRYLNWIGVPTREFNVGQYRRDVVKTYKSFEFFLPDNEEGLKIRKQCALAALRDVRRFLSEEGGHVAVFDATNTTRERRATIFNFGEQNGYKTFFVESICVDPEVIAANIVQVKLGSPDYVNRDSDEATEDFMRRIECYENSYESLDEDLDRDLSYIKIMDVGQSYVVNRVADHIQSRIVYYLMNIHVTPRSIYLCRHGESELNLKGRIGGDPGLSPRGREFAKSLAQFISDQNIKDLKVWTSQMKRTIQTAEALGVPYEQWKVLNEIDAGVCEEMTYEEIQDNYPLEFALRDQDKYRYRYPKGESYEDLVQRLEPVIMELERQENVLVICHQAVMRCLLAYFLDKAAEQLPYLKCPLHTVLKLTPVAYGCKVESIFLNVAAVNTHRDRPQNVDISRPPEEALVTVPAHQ
Text: as §1, §2, §3, §4, §5

PANC-1 cells = assay: Quantification of F-2,6-P2 in PANC-1 cells; type: cell-based; details: Homo sapiens, PANC-1; read-out: IC50 based on quantification of F-2,6-P2
Text: The relative kinase (formation) and phosphatase (degradation) activities of the bi-functional enzymes PFKFB3 and PFKFB4 control the intracellular levels of the regulator F-2,6-P2, which acts as an allosteric activator of glycolysis. The levels of F-2,6-P2 have been determined in three different cancer cell lines (MCF-7, PANC-1 and NUGC-3) using the van Shaftingen assay. The assay protocols described under “Methods for measurement of enzymatic activity of PFKFB3 and PFKFB4, Method A” have been adapted for the measurement of the inhibitory effect of compounds on the kinase activity of the various isoforms of the bifunctional enzyme (endogenously expressed) in the different cell lines. The modifications are described in the protocol below. All reagents were purchased from commercial sources or prepared inhouse.
Cell Line B (PANC-1, Human Pancreatic Carcinoma Cell Line)
• Cells: PANC-1 (ATCC-CRL-1469). Lot. no: 58564651. • Growth medium: Dulbecco's Modified Eagle's Medium, DMEM, ATCC-30-2002 10% FBS, Invitrogen, 10106-169
Cells were seeded at a concentration of 250 000 cells/mL in 100 μL growth medium (25 000 cells/well)
Starvation medium: DMEM/F12 without phenol red and glucose free, SVA, 991373 0.25% FBS, Invitrogen, 10106-169
Induction medium: DMEM/F12 without phenol red and glucose free, SVA, 991373 0.25% FBS, Invitrogen, 10106-169 (same as starvation medium)
Cells were seeded in 96-well Corning Costar tissue culture plates (CLS3595, Sigma-Aldrich) using the concentrations specified above for the three different cell lines A-C and incubated over night at 37° C. and 5% CO2. Row A was left empty. Next day the growth medium was discarded and replaced with 100 μL starvation medium. The plates were incubated for 18 h at 37° C. and 5% CO2. After 18 h of starvation the cells were induced with 100 μL compound or control solutions. Compounds were either tested in two concentrations (50 μM and 10 μM) or in dose response curves starting from 50 μM and the final DMSO concentration in assay plates was 0.5%. Also a dose response curve of a reference inhibitor was included in row H on each plate. All compounds were tested in duplicate plates. Compounds (in 96 well CLS 3365, Sigma-Aldrich) were serial diluted in DMSO from 10 mM compound DMSO stock solutions with Janus (automated liquid handling workstation from PerkinElmer). 5 μL were transferred to a Greiner deep well plate (736-0155, VWR) with 495 μL starvation medium. The final start concentration of compounds in the dilution plate was 100 μM, 1% DMSO. For compounds tested as single points, 10 mM compound solutions were diluted five fold in DMSO to 2 mM, followed by the transfer of 5 μL to separate dilution plates with 495 μL starvation medium. The final concentration of compounds in these dilution plates were 100 or 20 μM, respectively, and final concentration of DMSO was 1%. The plates were incubated at 37° C. and 5% CO2 for 1 h, followed by the addition of 10 μL 20 mM D-glucose in starvation medium. Controls, with and without 1 mM glucose, were included in row B. The final assay volume was 210 μL per well. After 2 h of incubation at 37° C. and 5% CO2, supernatants were discarded and the cells were lysed by the addition of 25 μL 250 mM NaOH. The plates were incubated at 37° C. and 5% CO2 for 5 min followed by an addition of 75 μL MilliQ dH2O. The supernatants were further diluted with 210 μL MilliQ dH2O to a final concentration of 20 mM NaOH. 200 μL were transferred to NUNC 96-well plates (7322661, VWR) and the plates were sealed and stored at −20° C. until analysis.
The amount of F-2,6-P2 was quantified based on the coupled enzymatic reaction described by Van Schaftingen. If necessary the samples were further diluted in 20 mM NaOH before quantification. Plates stored at −20° C. were thawed and the F-2,6-P2 quantification was initiated by transferring 40 μL from each well of the NUNC plate to the corresponding position in a trans-parent 96-well SpectraPlate-MB (6005649, PerkinElmer). […]

PFKFB3, sequence (Q16875 whole entry): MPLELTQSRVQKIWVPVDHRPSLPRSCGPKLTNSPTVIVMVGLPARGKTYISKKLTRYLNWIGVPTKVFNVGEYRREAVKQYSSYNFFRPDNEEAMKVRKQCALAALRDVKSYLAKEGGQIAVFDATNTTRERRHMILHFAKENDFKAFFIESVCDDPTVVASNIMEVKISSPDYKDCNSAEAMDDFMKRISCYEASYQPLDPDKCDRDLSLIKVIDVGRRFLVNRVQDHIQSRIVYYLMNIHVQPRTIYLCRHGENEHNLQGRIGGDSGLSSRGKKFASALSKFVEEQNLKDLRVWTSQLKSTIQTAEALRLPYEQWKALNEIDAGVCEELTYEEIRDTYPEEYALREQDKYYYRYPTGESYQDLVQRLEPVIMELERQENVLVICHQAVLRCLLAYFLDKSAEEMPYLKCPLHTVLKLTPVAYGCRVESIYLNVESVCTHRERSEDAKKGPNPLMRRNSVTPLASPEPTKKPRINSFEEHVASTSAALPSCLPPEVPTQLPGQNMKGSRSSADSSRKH

| pIC50 (PFKFB3) | pIC50 (PFKFB4) | pIC50 (PANC-1 cells) | SMILES |
| --- | --- | --- | --- |
| 6.21 |  |  | O=S(=O)(Nc1cccc(-c2nnn[nH]2)c1)c1ccc(-c2cc(F)cc(F)c2)s1 [Example 23, 5-(3,5-Difluorophenyl)-N-[3-(1H-tetrazol-5-yl)phenyl]thiophene-2-sulfonamide] |
|  | 6.18 | 4.96 | COc1ccccc1-c1ccc(S(=O)(=O)Nc2cccc(-c3nnn[nH]3)c2)s1 [Example 24, 5-(2-Methoxyphenyl)-N-[3-(1H-tetrazol-5-yl)phenyl]thiophene-2-sulfonamide] |
|  | 6.32 | 4.86 | Cc1ccc(-c2ccc(S(=O)(=O)Nc3cccc(-c4nnn[nH]4)c3)s2)cc1 [Example 27, 5-(4-Methylphenyl)-N-[3-(1H-tetrazol-5-yl)phenyl]thiophene-2-sulfonamide] |
| 6.89 |  |  | Cc1ccc2sc(S(=O)(=O)Nc3cccc(-c4nnn[nH]4)c3)c(C)c2c1 [Example 33, 3,5-Dimethyl-N-[3-(1H-tetrazol-5-yl)phenyl]-1-benzothiophene-2-sulfonamide] |
| 6.55 |  |  | Cc1c(S(=O)(=O)Nc2cccc(-c3nnn[nH]3)c2)sc2ccccc12 [Example 39, 3-Methyl-N-[3-(1H-tetrazol-5-yl)phenyl]-1-benzothiophene-2-sulfonamide] |
| 5.89 |  |  | O=S(=O)(Nc1cccc(-c2nnn[nH]2)c1)c1ccc(-c2ccccc2)s1 [Example 60, 5-Phenyl-N-[3-(1H-tetrazol-5-yl)phenyl]thiophene-2-sulfonamide] |
| 5.65 |  |  | CSc1nccc(-c2ccc(S(=O)(=O)Nc3cccc(C(=O)O)c3)s2)n1 [Example 61, 3-[[5-(2-Methylsulfanylpyrimidin-4-yl)-2-thienyl]sulfonylamino]benzoic acid] |
| 5.62 |  |  | O=S(=O)(Nc1cccc(-c2nnn[nH]2)c1)c1cc(Cl)c(Cl)cc1Cl [Example 71, 2,4,5-Trichloro-N-[3-(1H-tetrazol-5-yl)phenyl]benzenesulfonamide] |
| 6.24 |  |  | O=S(=O)(Nc1cccc(-c2nnn[nH]2)c1)c1ccc(Cl)c2nonc12 [Example 73, 7-Chloro-N-[3-(1H-tetrazol-5-yl)phenyl]-2,1,3-benzoxadiazole-4-sulfonamide] |
| 5.51 |  |  | O=C(O)c1cccc(NS(=O)(=O)c2cccc(-c3ccccc3)c2)c1 [Example 80, 3-[(Biphenyl-3-ylsulfonyl)amino]benzoic acid] |
|  | 5.43 |  | COc1ccc(-c2ccc(S(=O)(=O)Nc3cccc(-c4nnn[nH]4)c3)cc2)cc1 [Example 85, 4′-Methoxy-N-[3-(1H-tetrazol-5-yl)phenyl]biphenyl-4-sulfonamide] |
| 5.55 |  |  | O=S(=O)(Nc1cccc(-c2nnn[nH]2)c1)c1ccc(-c2ccc(Cl)c(Cl)c2)cc1 [Example 86, 3′,4′-Dichloro-N-[3-(1H-tetrazol-5-yl)phenyl]biphenyl-4-sulfonamide] |
| 5.85 |  |  | O=S(=O)(Nc1cccc(-c2nnn[nH]2)c1)c1ccc(-c2cccc(C(F)(F)F)c2)s1 [Example 99, N-[3-(1H-Tetrazol-5-yl)phenyl]-5-[3-(trifluoromethyl)phenyl]thiophene-2-sulfonamide] |
|  | 6.22 |  | O=S(=O)(Nc1cccc(-c2nnn[nH]2)c1)c1ccc(-c2ccc(F)cc2F)s1 [Example 101, 5-(2,4-Difluorophenyl)-N-[3-(1H-tetrazol-5-yl)phenyl]thiophene-2-sulfonamide] |
|  | 6.18 |  | O=S(=O)(Nc1cccc(-c2nnn[nH]2)c1)c1ccc(-c2ccc(F)c(Cl)c2)s1 [Example 102, 5-(3-Chloro-4-fluorophenyl)-N-[3-(1H-tetrazol-5-yl)phenyl]thiophene-2-sulfonamide] |
|  | 6.74 |  | Cc1c(S(=O)(=O)Nc2cccc(C(=O)O)c2O)sc2ccc(Cl)cc12 [Example 134, 3-{[(5-Chloro-3-methyl-1-benzothiophen-2-yl)sulfonyl]amino}-2-hydroxybenzoic acid] |
| 5.29 |  |  | O=C(O)c1cccc(NS(=O)(=O)c2cc(-c3ccccc3O)c(Cl)s2)c1O [Example 137, 3-({[5-Chloro-4-(2-hydroxyphenyl)thiophen-2-yl]sulfonyl}amino)-2-hydroxybenzoic acid] |
| 5.04 |  |  | Cc1c(S(=O)(=O)Nc2ccc(O)c(C(=O)O)c2)sc2ccc(Cl)cc12 [Example 138, 5-{[(5-Chloro-3-methyl-1-benzothiophen-2-yl)sulfonyl]amino}-2-hydroxybenzoic acid] |

Reference: US9233946B2, “Sulfonamide compounds” (KANCERA AB, priority 2010, dated 2016)
